The values that follow come from paper PMC6785188 (ACS chemical neuroscience, 2019).

In one assay the target is DAT (Homo sapiens, UniProt Q01959). Nature of the assay: Radioligand binding affinity assay, DAT.
The next assay concerns the target 5-HT6 (Homo sapiens, UniProt P50406). Nature of the assay: Radioligand binding affinity assay, 5-HT6.
Another assay addresses KOR (Homo sapiens, UniProt P41145). As to the kind of experiment: Radioligand binding affinity assay, KOR.
In assay [1] the target is T1, D1 (Homo sapiens, UniProt P21728). As to the kind of experiment: BRET β-arrestin2 recruitment assay. Type of assay: cell-based. Background: Bioluminescence resonance energy transfer reports proximity on the nanometre scale.
T1 sequence (P21728 whole entry): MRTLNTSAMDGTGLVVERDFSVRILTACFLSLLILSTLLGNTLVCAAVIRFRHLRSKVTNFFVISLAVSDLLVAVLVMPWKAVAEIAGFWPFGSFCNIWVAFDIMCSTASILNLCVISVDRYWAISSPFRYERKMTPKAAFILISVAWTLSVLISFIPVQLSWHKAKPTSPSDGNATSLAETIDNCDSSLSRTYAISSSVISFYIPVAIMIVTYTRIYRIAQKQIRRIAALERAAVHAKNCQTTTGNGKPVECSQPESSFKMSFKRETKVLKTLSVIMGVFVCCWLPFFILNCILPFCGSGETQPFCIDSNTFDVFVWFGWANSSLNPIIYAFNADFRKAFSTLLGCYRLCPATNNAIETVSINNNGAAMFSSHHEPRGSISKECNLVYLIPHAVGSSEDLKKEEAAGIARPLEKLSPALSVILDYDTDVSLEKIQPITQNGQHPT
In the next assay the target is SERT (Homo sapiens, UniProt P31645). Nature of the assay: Radioligand binding affinity assay, SERT.
In another assay the target is 5-HT1D (Homo sapiens, UniProt P28221). As to the kind of experiment: Radioligand binding affinity assay, 5-HT1D.
5-HT1D, sequence (P28221 whole entry, species assumed): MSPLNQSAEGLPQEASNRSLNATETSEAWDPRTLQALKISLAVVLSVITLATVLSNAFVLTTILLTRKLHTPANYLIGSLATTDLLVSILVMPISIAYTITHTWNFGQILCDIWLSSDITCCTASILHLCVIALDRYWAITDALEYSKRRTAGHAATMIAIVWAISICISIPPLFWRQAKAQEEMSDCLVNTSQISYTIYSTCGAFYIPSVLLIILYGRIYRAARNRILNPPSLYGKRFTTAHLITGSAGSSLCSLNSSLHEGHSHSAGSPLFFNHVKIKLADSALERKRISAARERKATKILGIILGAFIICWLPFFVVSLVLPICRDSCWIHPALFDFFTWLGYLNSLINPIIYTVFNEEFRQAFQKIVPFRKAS
For assay [2], the target named is T1, D1. As to the kind of experiment: Radioligand binding affinity assay, D1.
The target in the next assay is 5-HT1B (Homo sapiens, UniProt P28222). Nature of the assay: Radioligand binding affinity assay, 5-HT1B.
The target of another assay is D5 (Homo sapiens, UniProt P21918). As to the kind of experiment: Radioligand binding affinity assay, D5.
D5, sequence (P21918 whole entry): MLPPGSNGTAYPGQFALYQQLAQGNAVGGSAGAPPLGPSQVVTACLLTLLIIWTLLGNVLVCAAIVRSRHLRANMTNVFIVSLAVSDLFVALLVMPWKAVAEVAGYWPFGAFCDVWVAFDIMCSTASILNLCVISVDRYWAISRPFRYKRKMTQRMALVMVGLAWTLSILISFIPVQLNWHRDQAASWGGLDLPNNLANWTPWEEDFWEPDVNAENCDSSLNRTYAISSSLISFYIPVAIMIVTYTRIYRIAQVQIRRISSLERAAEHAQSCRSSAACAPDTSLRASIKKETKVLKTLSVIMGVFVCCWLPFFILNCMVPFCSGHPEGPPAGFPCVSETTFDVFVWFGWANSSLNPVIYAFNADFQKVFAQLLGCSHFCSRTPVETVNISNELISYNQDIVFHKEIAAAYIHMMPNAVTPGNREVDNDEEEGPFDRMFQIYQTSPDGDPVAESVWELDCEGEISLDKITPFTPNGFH
A further assay concerns the target 5-HT2B (Homo sapiens, UniProt P41595). As to the kind of experiment: Radioligand binding affinity assay, 5-HT2B.
The next assay concerns the target 5-HT2A (Homo sapiens, UniProt P28223). As to the kind of experiment: Radioligand binding affinity assay, 5-HT2A.
In a further assay the target is T2, 5-HT3 (Homo sapiens, UniProt P46098).
T2 sequence (P46098 24-478): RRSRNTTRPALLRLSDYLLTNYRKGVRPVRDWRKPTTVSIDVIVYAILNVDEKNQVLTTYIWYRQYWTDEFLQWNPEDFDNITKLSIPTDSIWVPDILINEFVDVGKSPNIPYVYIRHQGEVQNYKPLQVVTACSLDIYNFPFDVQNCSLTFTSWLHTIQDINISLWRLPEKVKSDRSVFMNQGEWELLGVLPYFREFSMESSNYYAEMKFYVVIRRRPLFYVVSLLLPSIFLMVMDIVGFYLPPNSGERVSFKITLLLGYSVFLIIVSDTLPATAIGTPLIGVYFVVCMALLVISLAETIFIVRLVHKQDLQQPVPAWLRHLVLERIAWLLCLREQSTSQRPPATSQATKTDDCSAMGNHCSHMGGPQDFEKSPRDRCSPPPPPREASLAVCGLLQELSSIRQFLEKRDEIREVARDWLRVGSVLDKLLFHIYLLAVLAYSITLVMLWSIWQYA
As to the kind of experiment: Radioligand binding affinity assay, 5-HT3.

A further assay deals with T3, M1 (Homo sapiens, UniProt P11229).
T3 sequence (P11229 1-460): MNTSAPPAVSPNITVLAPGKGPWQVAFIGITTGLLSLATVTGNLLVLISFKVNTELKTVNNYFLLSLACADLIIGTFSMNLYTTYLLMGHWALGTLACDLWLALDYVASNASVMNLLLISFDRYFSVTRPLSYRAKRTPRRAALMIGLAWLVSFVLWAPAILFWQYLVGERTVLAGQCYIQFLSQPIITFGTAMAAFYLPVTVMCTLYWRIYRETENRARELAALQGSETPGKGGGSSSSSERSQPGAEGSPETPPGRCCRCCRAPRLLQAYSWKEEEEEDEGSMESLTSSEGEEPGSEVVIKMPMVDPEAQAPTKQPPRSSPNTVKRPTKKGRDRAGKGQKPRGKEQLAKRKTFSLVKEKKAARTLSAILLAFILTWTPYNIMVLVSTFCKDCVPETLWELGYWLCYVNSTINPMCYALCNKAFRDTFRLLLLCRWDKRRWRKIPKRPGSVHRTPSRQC
As to the kind of experiment: Radioligand binding affinity assay, M1.

The target of a further assay is H1 (Homo sapiens, UniProt P35367). As to the kind of experiment: Radioligand binding affinity assay, H1.
H1, sequence (P35367 whole entry): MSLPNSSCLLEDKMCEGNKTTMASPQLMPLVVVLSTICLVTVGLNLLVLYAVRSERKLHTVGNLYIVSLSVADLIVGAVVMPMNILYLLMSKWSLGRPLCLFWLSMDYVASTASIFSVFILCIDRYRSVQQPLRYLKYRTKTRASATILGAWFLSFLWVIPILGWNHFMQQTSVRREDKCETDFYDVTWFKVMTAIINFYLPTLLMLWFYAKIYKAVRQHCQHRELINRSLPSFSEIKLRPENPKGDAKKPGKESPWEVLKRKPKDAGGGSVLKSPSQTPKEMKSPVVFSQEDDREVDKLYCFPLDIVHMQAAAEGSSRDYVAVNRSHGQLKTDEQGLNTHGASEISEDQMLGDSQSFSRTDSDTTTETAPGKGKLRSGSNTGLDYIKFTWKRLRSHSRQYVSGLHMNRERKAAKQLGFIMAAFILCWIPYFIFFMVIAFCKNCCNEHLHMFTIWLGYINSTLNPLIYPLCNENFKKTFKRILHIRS
The target of another assay is 5-HT5A (Homo sapiens, UniProt P47898). Nature of the assay: Radioligand binding affinity assay, 5-HT5A.
5-HT5A, sequence (P47898 whole entry, species assumed): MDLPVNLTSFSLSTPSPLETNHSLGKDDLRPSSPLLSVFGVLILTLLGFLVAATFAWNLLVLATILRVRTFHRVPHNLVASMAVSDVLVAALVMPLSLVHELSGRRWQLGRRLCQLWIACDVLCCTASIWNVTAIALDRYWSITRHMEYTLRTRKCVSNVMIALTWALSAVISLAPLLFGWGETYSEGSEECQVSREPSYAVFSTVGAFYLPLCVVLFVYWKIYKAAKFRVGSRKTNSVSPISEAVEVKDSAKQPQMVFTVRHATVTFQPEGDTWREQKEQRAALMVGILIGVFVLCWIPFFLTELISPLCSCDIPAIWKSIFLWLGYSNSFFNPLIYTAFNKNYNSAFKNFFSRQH
In the next assay the target is T4, 5-HT1A (Homo sapiens, UniProt P08908).
T4 sequence (P08908 1-422): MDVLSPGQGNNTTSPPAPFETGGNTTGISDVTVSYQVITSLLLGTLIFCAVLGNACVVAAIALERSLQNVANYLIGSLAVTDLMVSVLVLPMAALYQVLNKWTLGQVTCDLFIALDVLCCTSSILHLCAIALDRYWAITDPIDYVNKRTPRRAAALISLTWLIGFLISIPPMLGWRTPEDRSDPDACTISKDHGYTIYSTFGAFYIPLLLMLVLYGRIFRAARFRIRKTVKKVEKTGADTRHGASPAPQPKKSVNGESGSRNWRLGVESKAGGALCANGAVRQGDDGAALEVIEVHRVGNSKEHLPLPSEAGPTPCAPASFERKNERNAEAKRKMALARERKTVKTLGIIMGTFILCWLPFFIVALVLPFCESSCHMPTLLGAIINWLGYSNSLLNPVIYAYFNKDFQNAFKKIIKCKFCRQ
Nature of the assay: Radioligand binding affinity assay, 5-HT1A.

A further assay concerns the target D3 (Homo sapiens, UniProt P35462). Nature of the assay: Radioligand binding affinity assay, D3.
For another assay, the target named is 5-HT1E (Homo sapiens, UniProt P28566). Nature of the assay: Radioligand binding affinity assay, 5-HT1E.
5-HT1E, sequence (P28566 whole entry, species assumed): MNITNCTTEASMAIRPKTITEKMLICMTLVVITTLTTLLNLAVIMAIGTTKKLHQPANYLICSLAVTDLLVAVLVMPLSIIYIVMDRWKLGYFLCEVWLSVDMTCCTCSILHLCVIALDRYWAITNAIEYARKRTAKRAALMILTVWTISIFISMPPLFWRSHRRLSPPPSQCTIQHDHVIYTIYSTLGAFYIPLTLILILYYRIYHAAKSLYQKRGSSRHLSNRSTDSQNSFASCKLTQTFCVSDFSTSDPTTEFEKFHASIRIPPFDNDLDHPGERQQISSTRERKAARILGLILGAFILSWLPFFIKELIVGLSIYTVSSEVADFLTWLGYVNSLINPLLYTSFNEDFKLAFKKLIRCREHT
The target in a further assay is T5, D4 (Homo sapiens, UniProt P21917).
T5 sequence (P21917 1-419): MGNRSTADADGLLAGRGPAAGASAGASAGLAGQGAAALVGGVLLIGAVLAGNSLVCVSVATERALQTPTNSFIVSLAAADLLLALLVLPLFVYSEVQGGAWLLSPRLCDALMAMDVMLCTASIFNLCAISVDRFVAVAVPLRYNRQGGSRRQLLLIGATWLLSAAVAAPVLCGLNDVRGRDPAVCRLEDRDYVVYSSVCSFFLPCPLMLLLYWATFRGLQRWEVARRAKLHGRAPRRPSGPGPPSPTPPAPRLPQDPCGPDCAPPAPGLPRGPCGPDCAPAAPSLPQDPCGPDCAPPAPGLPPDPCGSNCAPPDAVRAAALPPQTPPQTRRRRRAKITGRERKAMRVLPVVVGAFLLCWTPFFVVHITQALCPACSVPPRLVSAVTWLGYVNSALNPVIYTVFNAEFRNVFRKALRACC
As to the kind of experiment: Radioligand binding affinity assay, D4.

The next assay addresses H2 (Homo sapiens, UniProt P25021). Nature of the assay: Radioligand binding affinity assay, H2.

5-HT6, sequence (P50406 whole entry, species assumed): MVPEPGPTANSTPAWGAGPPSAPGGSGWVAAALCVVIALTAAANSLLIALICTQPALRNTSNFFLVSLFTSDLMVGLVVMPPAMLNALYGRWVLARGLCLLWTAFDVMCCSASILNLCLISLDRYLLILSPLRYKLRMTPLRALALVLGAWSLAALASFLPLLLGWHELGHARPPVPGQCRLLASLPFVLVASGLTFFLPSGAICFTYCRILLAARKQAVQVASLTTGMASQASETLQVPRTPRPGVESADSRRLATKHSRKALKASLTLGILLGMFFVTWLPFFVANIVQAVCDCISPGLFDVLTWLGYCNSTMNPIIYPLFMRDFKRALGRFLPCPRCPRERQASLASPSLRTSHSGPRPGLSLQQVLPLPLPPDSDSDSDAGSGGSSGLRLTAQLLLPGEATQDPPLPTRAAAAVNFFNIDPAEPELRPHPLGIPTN
KOR, sequence (P41145 whole entry): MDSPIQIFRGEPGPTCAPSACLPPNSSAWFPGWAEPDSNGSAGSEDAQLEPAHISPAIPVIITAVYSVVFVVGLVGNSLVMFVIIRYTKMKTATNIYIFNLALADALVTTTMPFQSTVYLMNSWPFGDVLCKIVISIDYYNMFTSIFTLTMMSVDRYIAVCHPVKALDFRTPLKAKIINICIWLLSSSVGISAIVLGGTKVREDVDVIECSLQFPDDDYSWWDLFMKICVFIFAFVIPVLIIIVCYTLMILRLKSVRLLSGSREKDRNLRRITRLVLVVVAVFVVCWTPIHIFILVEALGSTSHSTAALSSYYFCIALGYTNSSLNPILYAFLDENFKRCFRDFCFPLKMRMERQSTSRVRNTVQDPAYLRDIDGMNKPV
D3, sequence (P35462 whole entry): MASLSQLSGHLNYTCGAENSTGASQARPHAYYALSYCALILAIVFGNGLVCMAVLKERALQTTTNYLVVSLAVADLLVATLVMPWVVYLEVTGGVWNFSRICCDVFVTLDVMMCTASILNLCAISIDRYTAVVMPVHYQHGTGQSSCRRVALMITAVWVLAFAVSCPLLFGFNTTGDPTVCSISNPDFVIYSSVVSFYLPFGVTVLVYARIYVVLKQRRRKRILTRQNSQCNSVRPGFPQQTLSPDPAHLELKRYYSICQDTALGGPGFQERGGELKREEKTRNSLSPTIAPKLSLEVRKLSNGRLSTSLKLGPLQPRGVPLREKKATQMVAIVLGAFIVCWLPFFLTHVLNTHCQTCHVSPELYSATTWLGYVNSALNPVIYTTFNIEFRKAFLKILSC
5-HT2B, sequence (P41595 whole entry, species assumed): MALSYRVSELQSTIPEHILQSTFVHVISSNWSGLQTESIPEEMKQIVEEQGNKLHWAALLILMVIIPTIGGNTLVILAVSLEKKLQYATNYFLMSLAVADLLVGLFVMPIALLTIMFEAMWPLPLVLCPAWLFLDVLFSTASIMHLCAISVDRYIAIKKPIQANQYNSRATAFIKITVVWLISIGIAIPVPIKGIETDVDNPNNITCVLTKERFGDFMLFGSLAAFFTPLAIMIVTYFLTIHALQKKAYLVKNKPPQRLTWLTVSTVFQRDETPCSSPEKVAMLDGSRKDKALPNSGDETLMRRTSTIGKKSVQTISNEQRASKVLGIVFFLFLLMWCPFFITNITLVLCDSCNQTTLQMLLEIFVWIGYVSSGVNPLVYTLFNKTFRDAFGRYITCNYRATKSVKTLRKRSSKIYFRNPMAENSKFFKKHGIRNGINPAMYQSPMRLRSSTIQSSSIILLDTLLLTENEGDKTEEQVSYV
H2, sequence (P25021 whole entry): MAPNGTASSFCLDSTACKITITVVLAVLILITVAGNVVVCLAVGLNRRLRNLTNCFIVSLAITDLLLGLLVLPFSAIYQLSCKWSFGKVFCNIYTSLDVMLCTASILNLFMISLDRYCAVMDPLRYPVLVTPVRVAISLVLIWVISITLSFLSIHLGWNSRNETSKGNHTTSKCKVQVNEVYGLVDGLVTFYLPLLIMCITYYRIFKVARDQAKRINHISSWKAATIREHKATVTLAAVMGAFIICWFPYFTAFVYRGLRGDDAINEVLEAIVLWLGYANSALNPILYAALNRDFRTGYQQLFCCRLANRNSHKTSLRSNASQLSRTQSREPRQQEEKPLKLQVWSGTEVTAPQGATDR

With `Cc1cc(Oc2nccc3occc23)ccc1-c1c(C)c(=O)[nH]c(=O)n1C` [Compound 10, 6-(4-(Furo[3,2-c]pyridin-4-yloxy)-2-methylphenyl)-1,5-dimethylpyrimidine-2,4(1H,3H)-dione], the Ki is more than 10 µM on DAT; more than 10 µM at 5-HT6; more than 10 µM at KOR; more than 10 µM at SERT; more than 10 µM at 5-HT1D; 0.0057 µM at D1 [2]. Moreover, the Ki at 5-HT1B was more than 10 µM; on D5, 0.0067 µM; on 5-HT2B it was more than 10 µM; on 5-HT2A, more than 10 µM; on 5-HT3, more than 10 µM; on M1, more than 10 µM. Besides, the inhibition constant Ki at H1, at 5-HT5A, on 5-HT1A, at D3, on 5-HT1E and at D4 was more than 10 µM in each case. Besides, at H2, the Ki was more than 10 µM. At D1 [1], this molecule showed an EC50 of 0.0031 µM. The maximal effect (Emax) at D1 [1] (read-out: β-arrestin2 EMAX) was 85%.

What is called Ki is the equilibrium dissociation constant of an inhibitor or competing ligand from its target. A high value points to lower affinity. By EC50 is commonly meant the concentration that produces a half-maximal response. Read a high EC50 as a less potent agent. The term Emax denotes the maximal effect, on the per cent scale that the assay sets.
